Where two headings read alike, the source gives them in different places.
Key:
BACE1 = BACE1 (Homo sapiens (Human), UniProt P56817); assay: BACE1 Cell-Free Assay (fluorescence polarization); assay type: biochemical
[1] = tested on: sAPPβ, the primary cleavage product of BACE1, in H4 human neuroglioma cells over-expressing the wild-type human APP695; assay: sAPPβ Whole-Cell Assay (WCA); assay type: cell-based; settings: 18 h
Procedure: sAPPβ Whole-Cell Assay (WCA):
sAPPβ, the primary cleavage product of BACE1, was determined in H4 human neuroglioma cells over-expressing the wild-type human APP695. […] The colorimetric reaction was read by an EnVision (PerkinElmer) plate-reader.

CYP2D6 = CYP2D6 (Homo sapiens (Human), UniProt P10635); assay: General Multi-Point Cocktail DDI IC50 Assay
Procedure: General Multi-Point Cocktail DDI IC50 Assay Conditions:
The incubation volume is 0.1 mL, utilizing a 384-well plate format. […] Substrate concentrations are near Km values that had been previously determined and incubation times are selected based on determinations of reaction velocity linearity. […] Samples are directly injected on an HPLC/MS/MS system. A Biomek FX workstation is used for liquid handling and sample incubation.

[2] = HLM Clint (clearance in human liver microsomes); assay type: in vitro ADME; settings: for CLint scaled: human
[3] = target: P-glycoprotein (MDR1-transfected MDCK cell line) (Homo sapiens (Human), UniProt P08183); assay: Pgp Liability MDR1 Er; assay type: in vitro ADME; settings: Papp BA/AB
Excerpt: (§1) MDR1 Efflux Ratio (MDR Er) from MDR1-transfected MDCK line cell line represents the ratio of permeability, Papp BA/AB. Procedure utilized from (Feng, B.; Mills, J. B.; Davidson, R. E.; Mireles, R. J.; Janiszewski, J. S.; Troutman, M. D.; de Morais, S. M. In vitro P-glycoprotein assays to predict the in vivo interactions of P-glycoprotein with drugs in the central nervous system. Drug Metab. Dispos. 2008, 36, 268-275.

hERG channel = hERG channel (Homo sapiens (Human), UniProt Q12809); assay: hERG Patch Clamp Assay; assay type: cell-based
Procedure: After a ˜30 minute recovery period, experiments were initiated.
hERG Potassium Channel Current Recordings and Data Analysis:
The intracellular recording saline was composed of (in […]): 70 KF, 60 KCl, 15 NaCl, 5 EGTA, 5 HEPES, and adjusted to pH 7.2±0.1 with KOH. […] Test pulses were delivered at a frequency of 0.25 Hz. Up to 4 different concentrations were studied on each cell, each exposure lasting 5 minutes or until steady-state effects were observed. […] Using Sophion Qpatch Assay Software, the amplitude of the peak outward hERG current upon repolarizing ramp was measured. Current amplitude was determined by taking the average of the last 5 current peaks under each treatment condition. […] When possible, a concentration-response curve was plotted and the data were fitted using Qpatch software to determine an IC50. The P<0.05 was considered statistically significant.

pKa = assay type: physicochemical
GSH Incubation Assay [4] = assay type: in vitro ADME; settings: incubation in human liver microsomes in the presence of GSH
human BACE2 = human BACE2 (Homo sapiens (Human), UniProt Q9Y5Z0); assay: BACE2 binding assay (SPA); settings: ratio of IC50 from BACE2 and BACE1 binding assays, pH 6.0
Excerpt: BACE2/BACE1 Binding Ratio:
The BACE1 and BACE2 binding assays measured beta-site amyloid precursor protein-cleaving enzyme (BACE) binding as a decrease in the counts of radioligand bound in a scintillation proximity assay (SPA). Utilizing a radiolabeled small molecule BACE active site binding inhibitor and crude HEK cell membrane preparations over-expressing full length BACE1 or BACE2, the binding of enzyme by test compound was monitored as a reduction of specific counts bound at pH 6.0. Full length human BACE1 or BACE2 over-expressed in HEK cells was prepared by Pfizer scientists. Frozen stock cell paste was reacted in 50 mM sodium acetate buffer (pH=6.0) containing 3H-(4aR,6R,8aS)-8a-(2,4-difluorophenyl)-6-(1-methyl-1H-pyrazol-4-yl)-4,4a,5,6,8,8a-hexahydropyrano[3,4-d][1,3]thiazin-2-amine ligand, SPA bead and 60 μM to 600 pM of test compound in an assay volume of 27 uL. The compound plate also contained positive (BACE inhibitor) and negative (DMSO) control wells. The binding was carried out at room temperature for 30 minutes and then the plates were read on a TriLux Microbeta reader to determine the number of counts bound.

GSH Incubation Assay [5] = assay type: in vitro ADME; settings: for Observed GSH adducts: Incubations with glutathione (50 mM) at 37° C. in buffer for 4 hours; for formation of GSH adducts: following incubations
Procedure: The test compound (10 μM in DMSO) was incubated with L-glutathione (50 mM, prepared in 100 mM potassium phosphate buffer) at 37° C. for 4 hours and then analyzed by HPLC-UV/MS/MS without work-up. Thermo Accela HPLC and Velos Pro Orbitrap Elite (S/N: SN05189B) operating in positive mode with a source voltage of 3.5 kV with data dependant processing. HPLC with a Phenomenox Kinetex C18, 1.7 μM, 2.1×100 mm. column (P/N: 00D-4475-AN), 5% acetonitrile/95% 0.1% formic acid for 0.5 min then a 7.0 min linear gradient to 40% acetonitrile/60% 0.1% formic acid, 400 μL/min., column temperature 45° C. Product assignments were based on high resolution mass spectrometer fragmentation.

P-glycoprotein (MDR1) = P-glycoprotein (MDR1) (Homo sapiens (Human), UniProt P08183); assay: Pgp Liability MDR1 Er; assay type: in vitro ADME; settings: dog; MDR1-transfected MDCK cell line; ratio of permeability, Papp BA/AB
Excerpt: as §1

[6] = Table 4, read-out: BACE1 Cell Free IC50
[7] = MDR1-transfected MDCK cell line, ratio of permeability
[8] = CHO cell transfected with hERG gene, automated Qpatch HT system
[9] = Measurement determined at Analyza
[10] = CHO cells transfected with hERG
[11] = Measurement determined at Analyza, read-out: pKa
[12] = geometric mean of 2-4 determinations unless otherwise indicated (b: ≧5; c: single determination), read-out: BACE1 Cell-free Assay IC50

CYP2D6, sequence (P10635 whole entry): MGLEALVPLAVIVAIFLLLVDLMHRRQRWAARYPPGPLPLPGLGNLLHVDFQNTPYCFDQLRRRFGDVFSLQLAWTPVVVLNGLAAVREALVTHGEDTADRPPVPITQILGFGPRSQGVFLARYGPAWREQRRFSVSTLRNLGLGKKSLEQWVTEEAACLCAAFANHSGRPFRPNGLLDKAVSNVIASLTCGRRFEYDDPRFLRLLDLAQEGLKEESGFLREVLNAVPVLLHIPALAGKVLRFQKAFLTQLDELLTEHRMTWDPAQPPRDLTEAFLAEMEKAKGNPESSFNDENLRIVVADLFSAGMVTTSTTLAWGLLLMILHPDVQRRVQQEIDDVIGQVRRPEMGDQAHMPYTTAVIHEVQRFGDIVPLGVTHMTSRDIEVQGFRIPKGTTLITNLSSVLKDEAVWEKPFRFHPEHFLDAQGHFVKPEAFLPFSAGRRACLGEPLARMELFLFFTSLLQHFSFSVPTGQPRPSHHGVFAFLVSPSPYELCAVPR
P-glycoprotein (MDR1-transfected MDCK cell line), sequence (P08183 whole entry): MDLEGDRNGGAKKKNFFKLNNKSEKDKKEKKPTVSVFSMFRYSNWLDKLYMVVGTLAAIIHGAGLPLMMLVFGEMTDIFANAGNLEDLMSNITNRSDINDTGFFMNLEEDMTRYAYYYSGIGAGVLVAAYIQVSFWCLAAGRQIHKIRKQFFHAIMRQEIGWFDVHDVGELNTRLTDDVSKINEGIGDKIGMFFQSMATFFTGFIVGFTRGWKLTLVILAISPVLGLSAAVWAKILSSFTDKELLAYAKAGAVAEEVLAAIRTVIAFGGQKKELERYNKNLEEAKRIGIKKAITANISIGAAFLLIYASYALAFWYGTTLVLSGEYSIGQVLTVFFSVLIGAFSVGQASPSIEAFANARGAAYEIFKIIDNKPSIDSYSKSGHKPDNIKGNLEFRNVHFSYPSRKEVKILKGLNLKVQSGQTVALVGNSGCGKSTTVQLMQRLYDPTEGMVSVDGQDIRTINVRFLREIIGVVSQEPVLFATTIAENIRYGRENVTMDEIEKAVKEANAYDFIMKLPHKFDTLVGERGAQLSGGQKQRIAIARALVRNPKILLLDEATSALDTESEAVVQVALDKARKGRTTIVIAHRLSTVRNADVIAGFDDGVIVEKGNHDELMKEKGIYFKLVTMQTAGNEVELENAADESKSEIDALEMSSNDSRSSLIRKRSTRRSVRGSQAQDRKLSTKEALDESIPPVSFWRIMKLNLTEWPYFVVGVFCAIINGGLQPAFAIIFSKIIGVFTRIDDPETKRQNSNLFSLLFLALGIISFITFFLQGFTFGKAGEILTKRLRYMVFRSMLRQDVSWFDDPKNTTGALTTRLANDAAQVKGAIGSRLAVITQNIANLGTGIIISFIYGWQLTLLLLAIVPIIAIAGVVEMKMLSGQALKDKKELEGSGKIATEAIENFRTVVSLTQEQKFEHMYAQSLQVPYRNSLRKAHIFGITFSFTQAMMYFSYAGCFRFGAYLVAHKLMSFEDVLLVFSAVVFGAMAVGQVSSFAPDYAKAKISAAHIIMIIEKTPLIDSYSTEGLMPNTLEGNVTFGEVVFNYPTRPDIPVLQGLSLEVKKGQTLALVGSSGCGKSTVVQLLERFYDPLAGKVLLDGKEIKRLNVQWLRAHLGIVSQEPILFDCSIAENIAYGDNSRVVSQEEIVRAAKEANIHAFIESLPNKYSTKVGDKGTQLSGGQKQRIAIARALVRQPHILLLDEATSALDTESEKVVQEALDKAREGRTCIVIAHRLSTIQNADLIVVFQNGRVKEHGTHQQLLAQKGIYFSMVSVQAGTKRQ
BACE1, sequence (P56817 46-457): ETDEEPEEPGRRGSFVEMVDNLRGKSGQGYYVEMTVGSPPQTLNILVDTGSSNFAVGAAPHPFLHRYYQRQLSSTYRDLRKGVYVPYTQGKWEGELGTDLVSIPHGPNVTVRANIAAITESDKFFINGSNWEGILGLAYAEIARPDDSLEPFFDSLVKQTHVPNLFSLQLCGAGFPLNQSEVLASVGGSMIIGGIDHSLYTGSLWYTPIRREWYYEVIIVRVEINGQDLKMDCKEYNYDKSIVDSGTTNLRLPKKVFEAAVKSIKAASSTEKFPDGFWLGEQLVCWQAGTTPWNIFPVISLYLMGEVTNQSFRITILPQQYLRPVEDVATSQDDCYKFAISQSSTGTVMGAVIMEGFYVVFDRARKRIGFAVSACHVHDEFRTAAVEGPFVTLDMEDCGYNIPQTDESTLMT
hERG channel, sequence (Q12809 whole entry): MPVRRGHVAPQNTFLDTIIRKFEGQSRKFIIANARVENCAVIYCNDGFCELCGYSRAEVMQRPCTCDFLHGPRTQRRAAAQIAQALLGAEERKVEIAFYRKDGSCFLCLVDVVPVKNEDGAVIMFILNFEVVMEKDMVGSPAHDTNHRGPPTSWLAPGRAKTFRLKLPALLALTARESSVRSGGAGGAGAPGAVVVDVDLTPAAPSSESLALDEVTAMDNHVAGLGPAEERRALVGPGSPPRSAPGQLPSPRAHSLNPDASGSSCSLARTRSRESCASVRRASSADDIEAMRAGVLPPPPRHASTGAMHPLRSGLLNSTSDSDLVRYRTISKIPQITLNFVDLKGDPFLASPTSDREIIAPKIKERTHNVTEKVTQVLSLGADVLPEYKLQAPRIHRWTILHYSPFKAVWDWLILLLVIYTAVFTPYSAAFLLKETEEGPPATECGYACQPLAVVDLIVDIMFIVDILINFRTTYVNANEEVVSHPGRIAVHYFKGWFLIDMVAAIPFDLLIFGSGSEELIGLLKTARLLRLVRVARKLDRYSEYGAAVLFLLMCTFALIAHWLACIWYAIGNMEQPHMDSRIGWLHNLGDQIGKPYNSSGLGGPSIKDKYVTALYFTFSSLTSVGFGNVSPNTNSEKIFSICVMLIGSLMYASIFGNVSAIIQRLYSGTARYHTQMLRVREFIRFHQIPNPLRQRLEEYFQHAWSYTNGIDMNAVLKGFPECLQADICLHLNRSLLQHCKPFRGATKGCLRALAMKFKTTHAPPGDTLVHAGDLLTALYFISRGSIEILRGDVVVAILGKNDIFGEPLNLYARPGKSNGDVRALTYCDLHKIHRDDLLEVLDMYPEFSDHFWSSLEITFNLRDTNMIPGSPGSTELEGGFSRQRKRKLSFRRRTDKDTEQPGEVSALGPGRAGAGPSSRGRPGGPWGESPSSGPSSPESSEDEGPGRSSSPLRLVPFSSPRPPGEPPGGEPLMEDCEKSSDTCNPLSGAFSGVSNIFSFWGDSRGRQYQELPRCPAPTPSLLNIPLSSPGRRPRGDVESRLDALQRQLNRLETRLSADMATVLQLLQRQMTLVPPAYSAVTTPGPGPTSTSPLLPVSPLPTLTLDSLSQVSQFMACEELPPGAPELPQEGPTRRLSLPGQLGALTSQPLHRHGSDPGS
human BACE2, sequence (Q9Y5Z0 63-518): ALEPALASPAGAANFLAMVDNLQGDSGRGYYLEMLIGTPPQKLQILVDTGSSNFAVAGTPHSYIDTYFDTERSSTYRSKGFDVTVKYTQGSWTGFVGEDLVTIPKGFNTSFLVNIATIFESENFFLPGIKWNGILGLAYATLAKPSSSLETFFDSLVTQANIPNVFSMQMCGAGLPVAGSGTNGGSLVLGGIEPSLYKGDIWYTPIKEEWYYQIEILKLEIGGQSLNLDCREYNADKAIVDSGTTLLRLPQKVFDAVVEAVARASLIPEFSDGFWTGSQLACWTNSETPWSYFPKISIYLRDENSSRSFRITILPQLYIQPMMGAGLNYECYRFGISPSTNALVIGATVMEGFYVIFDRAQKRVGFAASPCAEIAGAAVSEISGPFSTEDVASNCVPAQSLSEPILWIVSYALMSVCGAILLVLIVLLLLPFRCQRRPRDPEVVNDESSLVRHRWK
P-glycoprotein (MDR1), sequence (P08183 whole entry): as the sequence (P08183 whole entry) above

SMILES	IC50 (BACE1; [6])	IC50 [1]	HLM CLint [2]	Pgp liability MDR1 Er [3, 7]	IC50 (hERG channel; [8])	pKa (pKa; [9])	Aniline Structural Alert (Aniline structural alert)	IC50 ([1]; Homo sapiens)	IC50 (CYP2D6)	IC50 (CYP2D6; human, microsomes, pH 7.4)	CLint scaled [2]	Observed GSH adducts (GSH Incubation Assay [5])	formation of GSH adducts (GSH Incubation Assay [5])	Pgp liability MDR1 Er ([3]; MDR1-transfected MDCK)	IC50 (hERG channel; [10])	pKa (pKa; [11])	further results
NC1=N[C@@]2(c3cc(NC(=O)c4ccc(OC(F)F)cn4)ccc3F)COCC[C@H]2CS1 [Comparator 4, reference compound]	9 nM	< 1 nM	8.3 mL/min/kg	6.8	500 nM	8.2	Yes										IC50 (CYP2D6; microsomes): < 100 nM
C[C@H]1C[C@H]2CSC(N)=N[C@@]2(c2cc(NC(=O)c3ccc(C#N)cn3)cs2)CO1 [Comparator 5]							No										formation of GSH adducts (GSH Incubation Assay [4]): formation of chemical adducts
C[C@H]1C[C@H]2CSC(N)=N[C@@]2(c2cc(NC(=O)c3ccc(Cl)cn3)ccc2F)CO1 [Comparator 7, reference compound]	1 nM	< 1 nM	34.4 mL/min/kg^	3.03	200 nM	8.2	Yes										BACE2/BACE1 Binding Ratio (human BACE2): 1.0
NC1=N[C@@]2(c3cc(NC(=O)c4ccc(OC(F)F)cn4)ccc3F)CO[C@@H](C(F)(F)F)C[C@H]2CS1 [Comparator 6, reference compound]	6 nM	< 1 nM	<12.8 mL/min/kg	3.2		7.7	Yes										BACE2/BACE1 Binding Ratio (human BACE2): 1.0
C[C@H]1C[C@H]2CSC(N)=N[C@@]2(c2nc(NC(=O)c3ccc(OC(F)F)cn3)ccc2F)CO1 [Comparator 2]	43 nM		22.9 mL/min/kg^	14.2		8.7	No										IC50 (CYP2D6; read-out: CYP2D6 IC50): < 30 nM; pKa (pKa): 8.7
C[C@H]1C[C@H]2CSC(N)=N[C@@]2(c2nc(NC(=O)c3ccc(Cl)cn3)cs2)CO1 [Example 7, N-{2-[(4aR,6S,8aR)-2-amino-6-methyl-4,4a,5,6-tetrahydropyrano[3,4-d][1,3]thiazin-8a(8H)-yl]-1,3-thiazol-4-yl}-5-chloropyridine-2-carboxamide]			<8 mL/min/kg		9000 nM		No	4 nM	> 30000 nM	> 30000 nM	< 8 mL/min/kg	Negative	not detected	< 2.5	> 5000 nM	6.9	
C[C@H]1C[C@H]2CSC(N)=N[C@@]2(c2nc(NC(=O)c3ccc(OC(F)F)cn3)cs2)CO1 [Example 1, N-{2-[(4aR,6S,8aR)-2-amino-6-methyl-4,4a,5,6-tetrahydropyrano[3,4-d][1,3]thiazin-8a(8H)-yl]-1,3-thiazol-4-yl}-5-(difluoromethoxy)pyridine-2-carboxamide]			<8 mL/min/kg		9900 nM			5 nM	> 30000 nM	> 30000 nM	< 8 mL/min/kg	Negative	not detected	< 2.5	> 5000 nM	6.8	
Cc1cc(OC(F)F)cnc1C(=O)Nc1csc([C@]23CO[C@@H](C)C[C@H]2CSC(N)=N3)n1 [Example 45, N-{2-[(4aR,6S,8aR)-2-amino-6-methyl-4,4a,5,6-tetrahydropyrano[3,4-d][1,3]thiazin-8a(8H)-yl]-1,3-thiazol-4-yl}-5-(difluoromethoxy)-3-methylpyridine-2-carboxamide]	23 nM		<8 mL/min/kg				No	3 nM	> 30000 nM	> 30000 nM	< 8 mL/min/kg	Negative	not detected			6.9	IC50 (BACE1; [12]): 23 nM
C[C@H]1C[C@H]2CSC(N)=N[C@@]2(c2nc(NC(=O)c3ccc(OC(F)F)cn3)ccc2F)CO1 [Comparator 3, reference compound]	3 nM		19.8 mL/min/kg^	5.1	400 nM	8.3	Yes										
C[C@H]1C[C@H]2CSC(N)=N[C@@]2(c2nc(NC(=O)c3cnc(OC(F)F)cn3)cs2)CO1 [Example 2, N-{2-[(4aR,6S,8aR)-2-amino-6-methyl-4,4a,5,6-tetrahydropyrano[3,4-d][1,3]thiazin-8a(8H)-yl]-1,3-thiazol-4-yl}-5-(difluoromethoxy)pyrazine-2-carboxamide]	73 nM		<8 mL/min/kg		23600 nM		No	7 nM	> 30000 nM	> 30000 nM	< 8 mL/min/kg	Negative	not detected	< 2.5	> 5000 nM	6.8	IC50 (BACE1; [12]): 73 nM; efflux ratio (P-glycoprotein (MDR1)): 1.8
